Experimental data published in patent publication EP4722219A1 (Gan & Lee Pharmaceuticals Co., Ltd., priority 2023, dated 2024).

Target: T1, AR protein (Homo sapiens, UniProt P10275, T878A)
T1 construct: host or cells: LNCaP FGC
T1 sequence (P10275 1-920 T878A): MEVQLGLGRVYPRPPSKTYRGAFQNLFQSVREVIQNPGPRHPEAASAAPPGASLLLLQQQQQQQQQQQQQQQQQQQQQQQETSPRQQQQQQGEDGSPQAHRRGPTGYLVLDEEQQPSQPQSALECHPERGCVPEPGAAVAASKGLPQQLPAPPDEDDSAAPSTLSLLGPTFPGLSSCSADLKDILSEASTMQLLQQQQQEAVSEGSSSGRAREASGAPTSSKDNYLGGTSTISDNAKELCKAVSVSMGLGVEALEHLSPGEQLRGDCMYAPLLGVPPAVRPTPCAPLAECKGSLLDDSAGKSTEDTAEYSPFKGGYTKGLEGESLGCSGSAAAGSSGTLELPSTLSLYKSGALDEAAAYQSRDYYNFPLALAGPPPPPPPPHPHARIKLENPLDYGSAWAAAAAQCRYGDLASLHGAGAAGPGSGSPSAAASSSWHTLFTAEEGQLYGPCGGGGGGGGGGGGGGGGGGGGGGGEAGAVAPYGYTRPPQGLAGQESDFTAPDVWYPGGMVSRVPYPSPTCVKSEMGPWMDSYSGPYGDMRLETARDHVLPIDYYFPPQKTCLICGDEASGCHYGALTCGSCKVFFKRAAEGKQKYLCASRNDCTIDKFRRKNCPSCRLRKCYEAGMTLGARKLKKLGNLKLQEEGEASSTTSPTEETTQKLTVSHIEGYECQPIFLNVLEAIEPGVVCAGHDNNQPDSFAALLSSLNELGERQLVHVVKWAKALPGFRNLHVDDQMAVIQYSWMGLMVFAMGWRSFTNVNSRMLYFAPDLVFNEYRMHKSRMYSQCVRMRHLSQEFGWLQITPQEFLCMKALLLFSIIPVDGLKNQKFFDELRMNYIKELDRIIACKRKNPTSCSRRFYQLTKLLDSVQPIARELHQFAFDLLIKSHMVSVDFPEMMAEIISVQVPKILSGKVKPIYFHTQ
Test: AR protein degradation in LNCaP cells (Western blot)
Format: cell-based
Conditions: 8 hours; for Degradation of AR protein in LNCaP cells, 10 nM (%) / percent AR protein degradation at a fixed concentration at 0.01 µM: 10 nM; for Degradation of AR protein in LNCaP cells, 100 nM (%) / percent AR protein degradation at a fixed concentration at 0.1 µM: 100 nM
Outline: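 LNCaP cells exposed to compound or solvent control for 8 h, lysed in RIPA, protein normalized by BCA. AR detected by SDS-PAGE/Western blot with infrared imaging; band grayscale normalized to GAPDH to calculate AR degradation rate.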

## COc1cc(O[C@H]2C(C)(C)[C@H](NC(=O)c3ccc(N4CCC(CN5CCC6(CCc7cc(C(=O)N[C@H]8CCC(=O)NC8=O)c(F)cc7O6)CC5)CC4)nc3)C2(C)C)ccc1C#N [A-P-33, 1'-((1-(5-(((1R,3R)-3-(4-cyano-3-methoxyphenoxy)-2,2,4,4-tetramethylcyclobutyl)carbamoyl)pyridin-2-yl)piperidin-4-yl)methyl)-N-((S)-2,6-dioxopiperidin-3-yl)-7-fluorospiro[chroman-2,4'-piperidin]-6-carboxamide]
  Degradation of AR protein in LNCaP cells, 10 nM (%): 84%
  Degradation of AR protein in LNCaP cells, 100 nM (%): 85%

## Cn1c(=O)n(C2CCC(=O)NC2=O)c2ccc3c(c21)OCC31CCN(C2CCN(c3ccc(C(=O)N[C@H]4CC[C@H](Oc5ccc(C#N)c(Cl)c5)CC4)nn3)CC2)CC1 (stereo partly drawn) [A-P-23]
  percent AR protein degradation at a fixed concentration at 0.01 µM: 37%
  percent AR protein degradation at a fixed concentration at 0.1 µM: 14%

## COc1cc(O[C@H]2C(C)(C)[C@H](NC(=O)c3ccc(N4CCC(F)(CN5CCC6(CCc7cc(C(=O)N[C@H]8CCC(=O)NC8=O)c(F)cc7O6)CC5)CC4)cc3)C2(C)C)ccc1C#N [A-P-52, 1'-((1-(4-(((1r,3r)-3-(4-cyano-3-methoxyphenoxy)-2,2,4,4-tetramethylcyclobutyl)carbamoyl)phenyl)-4-fluoropiperidin-4-yl)methyl)-N-((S)-2,6-dioxopiperidin-3-yl)-7-fluorospiro[chroman-2,4'-piperidin]-6-carboxamide]
  Degradation of AR protein in LNCaP cells, 10 nM (%): -56%
  Degradation of AR protein in LNCaP cells, 100 nM (%): 23%

## COc1cc(O[C@H]2C(C)(C)[C@H](NC(=O)c3ccc(N4CCC(N5CCC6(CC5)COc5c6ccc6c5n(C)c(=O)n6C5CCC(=O)NC5=O)CC4)cc3)C2(C)C)ccc1C#N (stereo partly drawn) [A-P-29]
  percent AR protein degradation at a fixed concentration at 0.01 µM: 6%
  percent AR protein degradation at a fixed concentration at 0.1 µM: -27%

## C[C@H]1CC2(CCN(c3ccc(C(=O)N4CCC(CN5CCN6c7ccc(C(=O)N[C@H]8CCC(=O)NC8=O)cc7OC[C@@H]6C5)CC4)cc3)CC2)CN1c1ccc(C#N)c(Cl)c1 [A-P-69]
  Degradation of AR protein in LNCaP cells, 10 nM (%): 52%
  Degradation of AR protein in LNCaP cells, 100 nM (%): 79%

## Cn1c(=O)n(C2CCC(=O)NC2=O)c2ccc3c(c21)OCC31CCN(C2CC3(CCN(c4ccc(C(=O)N[C@H]5CC[C@H](Oc6ccc(C#N)c(Cl)c6)CC5)nn4)CC3)C2)CC1 (stereo partly drawn) [A-P-25]
  percent AR protein degradation at a fixed concentration at 0.01 µM: 58%
  percent AR protein degradation at a fixed concentration at 0.1 µM: 31%

## COc1cc(O[C@H]2C(C)(C)[C@H](NC(=O)c3ccc(N4CCC(CN5CCN(c6ccc(C(=O)N[C@H]7CCC(=O)NC7=O)c(F)c6)CC5)CC4)cc3)C2(C)C)ccc1C#N [ARV-766, reference compound]
  Degradation of AR protein in LNCaP cells, 10 nM (%): 49%
  Degradation of AR protein in LNCaP cells, 100 nM (%): 78%

## COc1cc(O[C@H]2C(C)(C)[C@H](NC(=O)c3ccc(N4CCC(F)(CN5CCC6(CCc7cc(F)c(C(=O)N[C@H]8CCC(=O)NC8=O)cc7O6)CC5)CC4)cc3)C2(C)C)ccc1C#N [A-P-41]
  Degradation of AR protein in LNCaP cells, 10 nM (%): -37%
  Degradation of AR protein in LNCaP cells, 100 nM (%): -31%

## C[C@H]1CC2(CCN(c3ccc(C(=O)N4CCC(CN5CCC6(CCc7cc(C(=O)N[C@H]8CCC(=O)NC8=O)c(F)cc7O6)CC5)CC4)cc3)CC2)CN1c1ccc(C#N)c(Cl)c1 [A-P-35, 1'-((1-(4-((S)-2-(3-chloro-4-cyanophenyl)-3-methyl-2,8-diazaspiro[4.5]decan-8-yl)benzoyl)piperidin-4-yl)methyl)-N-((S)-2,6-dioxopiperidin-3-yl)-7-fluorospiro[chroman-2,4'-piperidin]-6-carboxamide]
  percent AR protein degradation at a fixed concentration at 0.01 µM: 61%
  percent AR protein degradation at a fixed concentration at 0.1 µM: 70%
